Counter-ions that a name gives are not always drawn.
Test system: IL-4 stimulated expression of CD23 in human Ramos B cells (JAK-1 and JAK-3)
Assay: Assay for Ramos B-Cell Line Stimulated with IL-4 (CD23 upregulation, FACS)
Format: cell-based
Settings: Homo sapiens, Ramos, Ramos B cells stimulated with IL-4, CD23 expression by FACS; read-out: IC50, Example 41
Summary of the method: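 Human Ramos B cells in RPMI with 5% serum were pre-incubated with compound or DMSO for 1 h at 37 °C, then stimulated with IL-4 at a final 50 units/mL for 20-24 h. CD23 upregulation was measured by anti-CD23-PE staining and flow cytometry, and IC50 values were calculated.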

IC50 [nM]	Compound
6650	COC(=O)[C@@H]1C[C@@H](Nc2nc(Nc3ccc(C)c(S(N)(=O)=O)c3)ncc2F)CN1C(=O)CC#N [VII-1, N2-(3-Aminosulfonyl-4-methylphenyl)-N4-[(2S,4R)-1-(2-cyanoacetyl)-2-methoxycarbonylpyrrolidin-4-yl]-5-fluoro-2,4-pyrimidinediamine]
5800	CCC(=O)NS(=O)(=O)c1cccc(Nc2ncc(F)c(Nc3ccc(CCOC(=O)N(C)C)cc3)n2)c1 [VI-64, N4-{4-[2-(Dimethylaminocarbonyloxy)ethyl]phenyl}-5-fluoro-N2-(3-propionylaminosulfonylphenyl)-2,4-pyrimidinediamine]
597	CCCN(c1ccc(OC)c(Cl)c1)c1nc(Nc2cc(C)c(F)c(S(N)(=O)=O)c2)ncc1F [VI-23, N2-(3-Aminosulfonyl-4-fluoro-5-methylphenyl)-N4-(3-chloro-4-methoxyphenyl)-5-fluoro-N4-propyl-2,4-pyrimidinediamine]
455	NC(=O)NCCc1ccc(Nc2nc(Nc3cccc(S(N)(=O)=O)c3)ncc2F)cc1 [VI-72, N4-{4-[2-(Aminocarbonylamino)ethyl]phenyl}-N2-(3-aminosulfonylphenyl)-5-fluoro-2,4-pyrimidinediamine]
161	C#CCNS(=O)(=O)c1cccc(Nc2ncc(F)c(Nc3ccc(OCC#C)cc3)n2)c1 [VI-78, 5-Fluoro-N2-[3-(prop-2-ynylaminosulfonyl)phenyl]-N4-[4-(prop-2-ynyloxy)phenyl]-2,4-pyrimidinediamine]
623	O=S(=O)(c1ccc(Nc2ncc(F)c(Nc3ccc4c(c3)OCCO4)n2)cc1)N1CCCC1 [VII-24, N4-(3,4-Ethylenedioxyphenyl)-5-fluoro-N2-[4-(pyrrolidin-1-ylsulfonyl)phenyl]-2,4-pyrimidinediamine]
205	CNS(=O)(=O)c1ccc(Nc2ncc(F)c(Nc3cccc(O)c3)n2)cc1OC [VI-1, 5-Fluoro-N4-(3-hydroxyphenyl)-N2-[4-(N-methyl)aminosulfonyl-3-methoxyphenyl]-2,4-pyrimidinediamine]
1110	COc1ccc(CN2C(=O)C(C)Sc3ccc(Nc4nc(Nc5ccc(C)c(S(N)(=O)=O)c5)ncc4F)cc32)cc1 (racemic) [Compound V-9, (R/S)-N2-(3-Aminosulphonyl-4-methylphenyl)-5-fluoro-N4-[2-methyl-3-oxo-4-(4-methoxybenzyl)-benzo[1,4]thiazin-6-yl]-2,4-pyrimidinediamine]
2030	Cc1ccc2cccc(Nc3nc(Nc4ccc(C)c(S(N)(=O)=O)c4)ncc3F)c2n1 [VII-80, N2-(3-Aminosulfonyl-4-methylphenyl)-5-fluoro-N4-(2-methylquinolin-8-yl)-2,4-pyrimidinediamine]
2670	CN1C(=O)CSc2ccc(N(CC#N)c3nc(Nc4ccc(S(N)(=O)=O)cc4)ncc3F)cc21 [VII-47, N2-(4-Aminosulphonylphenyl)-N4-cyanomethyl-5-fluoro-N4-[3-oxo-4-methyl-benzo[1,4]thiazin-6-yl]-2,4-pyrimidinediamine]
3170	C#CCNS(=O)(=O)c1cccc(Nc2nc(Nc3cccc(S(N)(=O)=O)c3)ncc2F)c1 [VI-81, N2-(3-Aminosulfonylphenyl)-5-fluoro-N4-[3-(prop-2-ynylaminosulfonyl)phenyl]-2,4-pyrimidinediamine]
93.2	NS(=O)(=O)c1ccc(Nc2ncc(F)c(Nc3cccc(-c4cnco4)c3)n2)cc1 [IV-3, N2-(4-Aminosulfonylphenyl)-5-fluoro-N4-[3-(1,3-oxazol-5-yl)phenyl]-2,4-pyrimidinediamine]
18300	COc1ccc(Nc2nc(Nc3ccncc3S(N)(=O)=O)ncc2F)cc1Cl [VI-31, N2-(3-Aminosulfonylpyrid-4-yl)-N4-(3-chloro-4-methoxyphenyl)-5-fluoro-2,4-pyrimidinediamine]
3700	NS(=O)(=O)c1cccc(Nc2ncc(F)c(Nc3ccc(C(=O)N4CCS(=O)(=O)CC4)cc3)n2)c1 [IX-37, N2-(3-Aminosulfonylphenyl)-N4-[4-(1,1-dioxo-4-thiomorpholinyl)carbonylphenyl]-5-fluoro-2,4-pyrimidinediamine]
28.1	CNS(=O)(=O)c1ccc(Nc2ncc(F)c(Nc3ccc4c(c3)NC(=O)C(C)(C)O4)n2)cc1OC [VII-37, N4-(2,2-Dimethyl-3-oxo-4H-benz[1,4]oxazin-6-yl)-5-fluoro-N2-[4-(N-methyl)aminosulfonyl-3-methoxyphenyl]-2,4-pyrimidinediamine]
36200	COC(=O)[C@@H]1C[C@H](Nc2nc(Nc3ccc(C)c(S(N)(=O)=O)c3)ncc2F)CN1C(=O)CC#N [VII-2, N2-(3-Aminosulfonyl-4-methylphenyl)-N4-[(2S,4S)-1-(2-cyanoacetyl)-2-methoxycarbonylpyrrolidin-4-yl]-5-fluoro-2,4-pyrimidinediamine]
1040	NS(=O)(=O)c1ccc(Nc2ncc(F)c(Nc3ccc(C(=O)N4CCSCC4)cc3)n2)cc1 [IX-36, N2-(4-Aminosulfonylphenyl)-5-fluoro-N4-[4-(4-thiomorpholinyl)carbonylphenyl]-2,4-pyrimidinediamine]
700	NS(=O)(=O)c1cccc(Nc2ncc(F)c(Nc3cccc(S(N)(=O)=O)c3)n2)c1 [VI-113, N2,N4-Bis-(3-aminosulfonylphenyl)-5-fluoro-2,4-pyrimidinediamine]

Same assay, conditions: Homo sapiens, Ramos, Ramos B-cell line stimulated with IL-4; CD23 expression by FACS; read-out: IC50, Example 41

IC50 [nM]	Compound
1510	NC(=O)COc1ccc(Nc2nc(Nc3cccc(S(N)(=O)=O)c3)ncc2F)cc1CO [Compound I-107, N4-(4-Aminocarbonylmethoxy-3-hydroxymethylphenyl]-N2-(3-aminosulfonylphenyl)-5-fluoro-2,4-pyrimidinediamine]
1430	COc1cc(Nc2nc(Nc3cccc(S(N)(=O)=O)c3)ncc2F)ccc1OCC(N)=O [Compound I-104, N4-(4-Aminocarbonylmethoxy-3-methoxyphenyl)-N2-(3-aminosulfonylphenyl)-5-fluoro-2,4-pyrimidinediamine]
24.1	N#CCOc1ccc(Nc2nc(Nc3cccc(S(N)(=O)=O)c3)ncc2F)cc1Cl [Compound I-42, N2-(3-Aminosulfonylphenyl)-N4-(3-chloro-4-cyanomethoxyphenyl)-5-fluoro-2,4-pyrimidinediamine]
871	CN(C)C(=O)COc1ccc(Nc2nc(Nc3ccc(S(N)(=O)=O)cc3)ncc2F)cc1 [Compound I-128, N2-(4-Aminosulfonylphenyl)-N4-(4-dimethylaminocarbonylmethoxyphenyl)-5-fluoro-2,4-pyrimidinediamine]
758	Cc1ccc(Nc2ncc(F)c(Nc3ccc(OCC(=O)N4CCOCC4)cc3)n2)cc1S(N)(=O)=O [Compound I-212, N2-(3-Aminosulfonyl-4-methylphenyl)-5-fluoro-N4-[4-(2-morpholin-4-yl-2-oxo-ethoxy)phenyl]-2,4-pyrimidinediamine]

Same assay, conditions: Ramos B cells stimulated with IL-4, CD23 expression by FACS; read-out: IC50, Example 41

IC50 [nM]	Compound
944	N2-(4-aminosulfonyl)phenyl-5-fluoro-N4-(4-thiomethylcarbonyl)phenyl-2,4-pyrimidinediamine [VI-94]
47100	CC1(C)Oc2cc(Nc3nc(Nc4ccc(S(N)(=O)=O)cc4)ncc3F)cnc2NC1=O [VII-52, N2-(4-Aminosulfonylphenyl)-N4-[2,2-dimethyl-3-oxo-4H-5-pyrid[1,4]oxazin-7-yl]-5-fluoro-2,4-pyrimidinediamine]
8620	CCOC(=O)CN(c1ccc(OC)c(Cl)c1)c1nc(Nc2cccc(S(N)(=O)=O)c2)ncc1C(=O)OCC [VI-24, N2-(3-Aminosulfonylphenyl)-5-carboethoxy-N4-(N-carboethoxymethylene-N-3-chloro-4-methoxyphenyl)-2,4-pyrimidinediamine]
539	CCNC(=O)NCCc1ccc(Nc2nc(Nc3ccc(S(N)(=O)=O)cc3)ncc2F)cc1 [III-122, N2-(4-aminosulfonyl)phenyl-N4-[4-(2-ethylaminocarbonylamino)ethyl]phenyl-5-fluoro-2,4-pyrimidinediamine]
836	CCCN(Cc1ccc(Nc2nc(Nc3ccc(S(N)(=O)=O)cc3)ncc2F)cc1)C(N)=O [III-125, N2-(4-aminosulfonyl)phenyl-N4-[4-(N-carbamoyl-N-propyl)aminomethyl]phenyl-5-fluoro-2,4-pyrimidinediamine]
9660	C#CCOc1ccc(Nc2nc(Nc3ccc(C)c(S(=O)(=O)NC(=O)CC)c3)ncc2F)cc1 [VI-56, 5-Fluoro-N2-(4-methyl-3-propionylaminosulfonylphenyl)-N4-[4-(prop-2-ynyloxy)phenyl]-2,4-pyrimidinediamine]

Same assay, conditions: Ramos B-cell line stimulated with IL-4; CD23 expression by FACS; read-out: IC50, Example 41

IC50 [nM]	Compound
3080	Cc1ccc(Nc2ncc(F)c(Nc3ccc(OCc4n[nH]c(=O)[nH]4)cc3)n2)cc1S(N)(=O)=O [Compound I-202, N2-(3-Aminosulfonyl-4-methylphenyl)-5-fluoro-N4-[4-(2,4-dihydro-3-oxo-1,2,4-triazol-5-yl)methyleneoxyphenyl]-2,4-pyrimidinediamine]
788	5-Fluoro-N4-(4-[3-methyl-1,2,4-oxadiazol-5-yl]methyleneoxyphenyl)-N2-(5-piperidinesulfonylphenyl)-2,4-pyrimidinediamine [Compound I-272]
780	CNS(=O)(=O)c1ccc(Nc2ncc(F)c(Nc3cccc(O)c3)n2)cc1OC [Compound I-270]
2910	CCN(CC)CCNS(=O)(=O)c1cccc(Nc2ncc(F)c(Nc3cccc(OCc4cccnc4)c3)n2)c1 [Compound I-187, N2-[3-(2-N,N-Diethylaminoethyl)aminosulfonylphenyl)-5-fluoro-N4-[3-(3-pyridinyl)methyleneoxyphenyl]-2,4-pyrimidinediamine]

Same assay, conditions: Ramos B-cell line stimulated with IL-4; CD23 expression by FACS; sodium salt; read-out: IC50, Example 41

IC50 [nM]	Compound
4630	CCC(=O)NS(=O)(=O)c1cc(Nc2ncc(F)c(Nc3ccc(OCC#N)cc3)n2)ccc1C [Compound I-31, N4-(4-Cyanomethyleneoxy)phenyl-5-fluoro-N2-(4-methyl-3-propionylaminosulfonyl)phenyl-2,4-pyrimidinediamine sodium salt]

— US11827628B2, “Compositions and methods for inhibition of the JAK pathway” (Rigel Pharmaceuticals, Inc., priority 2005, dated 2023)
